Laboratory results from patent US8518875B2, “(Carboxylalkylenephenyl)phenyloxamides, method for the production thereof and use of same as a medicament” (SANOFI, priority 2007, dated 2013).

Target: T1, GPCR GPR40 (Homo sapiens, UniProt O14842)
T1 construct: expressed in transfected cells; host or cells: HEK293
Test: In-vitro FLIPR assay with recombinant cells which express the GPCR GPR40
Format: cell-based
Details: intracellular Ca2+ in recombinant HEK293 cells expressing GPR40, 100% = 10 μM linoleic acid
Experimental: In-Vitro FLIPR Assay with Recombinant Cells which Express the GPCR GPR40
Function-testing assays were carried out by means of the FLIPR technique (“fluorescence imaging plate reader”, Molecular Devices Corp.). For this purpose, agonist-induced alterations in the intracellular concentration of Ca^2+ in recombinant HEK293 cells which express the GPCR GPR40 were determined.
For the investigations, cells were seeded in 96-well microtiter plates (60 000 cells/well) and left to grow overnight. The medium was removed and the cells were incubated in buffer which contained the fluorescent dye Fluo-4. After this loading with dye, the cells were washed, test substance was added and alterations in the intracellular Ca^2+ concentration were measured in the FLIPR instrument. Results have been depicted as percentage alteration relative to the control (0%: no test substance added; 100%: 10 μM reference agonist linoleic acid added) used to calculate dose/activity plots and EC50 values were determined.

T1 sequence (O14842 whole entry): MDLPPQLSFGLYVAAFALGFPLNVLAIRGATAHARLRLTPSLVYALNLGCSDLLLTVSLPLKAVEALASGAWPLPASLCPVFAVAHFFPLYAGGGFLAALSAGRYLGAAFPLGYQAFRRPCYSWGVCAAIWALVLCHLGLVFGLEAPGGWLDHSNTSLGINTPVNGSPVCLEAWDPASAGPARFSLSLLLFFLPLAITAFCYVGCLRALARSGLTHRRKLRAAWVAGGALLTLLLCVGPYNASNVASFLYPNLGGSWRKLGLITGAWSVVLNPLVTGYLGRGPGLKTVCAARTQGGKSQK

| SMILES | EC50 [nM] |
| --- | --- |
| CC(C)c1ccc(NC(=O)C(=O)Nc2cccc(CCC(=O)O)c2)c(Br)c1 [compound 21] | 16800 |
| O=C(O)CCc1ccc(NC(=O)C(=O)Nc2cc(C(F)(F)F)ccc2Br)cc1 [compound 11] | 800 |
| O=C(O)CCc1ccc(NC(=O)C(=O)Nc2ccc(Cl)cc2Cl)cc1 [compound 7] | 700 |
| O=C(O)CCc1cccc(NC(=O)C(=O)Nc2c(Cl)c(Cl)cc(Cl)c2Cl)c1 [compound 24] | 60100 |

Compounds with a lower EC50, results first:

| EC50 [nM] | SMILES |
| --- | --- |
| 600 | O=C(O)CCc1ccc(NC(=O)C(=O)Nc2ccc(Br)cc2Cl)cc1 [compound 14] |
| 100 | CC(C)c1ccc(NC(=O)C(=O)Nc2ccc(CCC(=O)O)cc2)c(C(F)(F)F)c1 [compound 9] |
